Experimental data taken from US8252814B2, “Agents and crystals for improving excretory potency of urinary bladder” (priority 1998, dated 2012).

Legend:
[1] = Stability test, Experimental Example 7; assay type: physicochemical
Method: A number of specimens of the crystals obtained in Example 1 were stored under the following conditions and then their changes in the property and the remaining percent were determined.
Storing conditions: 1. 60° C. for 3 months (in a brown glass bottle, closed); 2. 45° C., the relative humidity of 75% for 3 months (in a brown glass bottle, closed); 3. 40° C., the to relative humidity of 75% for 3 months (in a brown glass bottle, opened); 4. irradiated with a xenon lamp (60000 lux) for 20 hours (1.2 million lux/hour) (on a Petri dish covered with a polyvinylidene chloride film).

[2] = molecular target: T1, human erythrocyte-derived acetylcholine esterase (Homo sapiens, UniProt P22303); assay: Determination of the activity to inhibit the acetylcholine esterase of the crystals (Ellman method), Experimental Example 5; assay type: biochemical; details: at least three experiments
T1 construct: Acetylcholinesterase of human erythrocyte origin (Sigma Chemical Co.); purchased Sigma Chemical Co; host or cells: human erythrocytes (natural source)
T1 sequence (P22303 32-617 isoform P22303-2 limits assumed): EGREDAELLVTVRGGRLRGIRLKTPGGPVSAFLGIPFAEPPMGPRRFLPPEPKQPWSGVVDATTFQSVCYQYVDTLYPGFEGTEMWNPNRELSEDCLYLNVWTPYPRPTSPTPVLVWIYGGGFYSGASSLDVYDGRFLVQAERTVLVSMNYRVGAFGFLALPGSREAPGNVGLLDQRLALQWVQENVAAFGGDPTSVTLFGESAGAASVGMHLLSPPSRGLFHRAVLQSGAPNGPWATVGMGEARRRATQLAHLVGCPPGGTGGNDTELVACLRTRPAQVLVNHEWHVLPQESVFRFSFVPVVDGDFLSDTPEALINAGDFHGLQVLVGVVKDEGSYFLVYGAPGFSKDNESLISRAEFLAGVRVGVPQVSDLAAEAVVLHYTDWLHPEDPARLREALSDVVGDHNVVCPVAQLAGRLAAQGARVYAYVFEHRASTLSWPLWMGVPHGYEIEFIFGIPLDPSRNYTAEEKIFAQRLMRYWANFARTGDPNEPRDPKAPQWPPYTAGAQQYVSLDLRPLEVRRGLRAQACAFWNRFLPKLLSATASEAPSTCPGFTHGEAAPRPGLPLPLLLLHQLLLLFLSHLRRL
Method: The activity to inhibit the acetylcholine esterase of the crystals obtained in Example 1 was determined according to the acetylthiocholine method (the Ellman method) by the use of a human erythrocyte-derived acetylcholine esterase.
A human erythrocyte-derived acetylcholine esterase (Sigma Chemical Company) was dissolved into distilled water to obtain a standard enzyme preparation with an enzyme concentration of 0.2 IU/mL. […]
The activity to inhibit the acetylcholine esterase of the crystals obtained in Example 1 was determined according to the acetylthiocholine method (the ElIman method) by the use of a human erythrocyte-derived acetylcholine esterase.
A human erythrocyte-derived acetylcholine esterase (Sigma Chemical Company) was dissolved into distilled water to obtain a standard enzyme preparation with an enzyme concentration of 0.2 IU/mL. […] As soon as 50 μl of a 4-mM solution of acetylthiocholine iodide (Sigma Chemical Company) was added and shaking was started again, every increment in absorbance at the wavelength of 414 nm at an interval of 30 seconds was determined for 10 minutes. R=5.74×10^−7×ΔA (wherein R indicates an enzyme activity (mol) and ΔA indicates an increment in absorbance at the wavelength of 414 nm). […] Furthermore, the activity to inhibit the acetylcholine esterase of distigmine was determined in a manner similar to that described in the above method.

For `O=C(CCC1CCN(Cc2cccc(F)c2)CC1)c1cc2c3c(c1)CCN3C(=O)CC2` [Example 1, 8-[3-[1-[(3-fluorophenyl)-methyl]-4-piperidinyl]-1-oxopropyl]-1,2,5,6-tetrahydro-4H-pyrrolo-[3,2,1-ij]quinolin-4-one], the “Remaining percent (%)” value ([1]; storing condition 1 (60° C./3 months), brown glass bottle, closed) was 99.8%, the “Remaining percent (%)” value ([1]; storing condition 2 (40° C./75% RH, closed), 3 months, brown glass bottle) was 101.6% and the “Remaining percent (%)” value ([1]; storing condition 3 (40° C./75% RH, open), 3 months, brown glass bottle) was 100.2%. For the same molecule, the “Remaining percent (%)” value ([1]; storing condition 4 (Xenon lamp/20 hs.), 60000 lux) was 100.1%, the “stability (in words)” value ([1]; storing conditions 1 to 4) was “any change in the property and any decrease in the remaining percent were not observed” and the IC50 [2] was 6.6 nM.
